{"source": "ChEMBL document CHEMBL2073966", "about": "“Cloning and functional characterization of a new multispecific organic anion transporter, OAT-K2, in rat kidney” (Mol Pharmacol, 1999)", "data": [{"biological_target": "T1, Solute carrier organic anion transporter family member 1A3 (Rattus norvegicus, UniProt P70502)", "T1 sequence (P70502 whole entry)": "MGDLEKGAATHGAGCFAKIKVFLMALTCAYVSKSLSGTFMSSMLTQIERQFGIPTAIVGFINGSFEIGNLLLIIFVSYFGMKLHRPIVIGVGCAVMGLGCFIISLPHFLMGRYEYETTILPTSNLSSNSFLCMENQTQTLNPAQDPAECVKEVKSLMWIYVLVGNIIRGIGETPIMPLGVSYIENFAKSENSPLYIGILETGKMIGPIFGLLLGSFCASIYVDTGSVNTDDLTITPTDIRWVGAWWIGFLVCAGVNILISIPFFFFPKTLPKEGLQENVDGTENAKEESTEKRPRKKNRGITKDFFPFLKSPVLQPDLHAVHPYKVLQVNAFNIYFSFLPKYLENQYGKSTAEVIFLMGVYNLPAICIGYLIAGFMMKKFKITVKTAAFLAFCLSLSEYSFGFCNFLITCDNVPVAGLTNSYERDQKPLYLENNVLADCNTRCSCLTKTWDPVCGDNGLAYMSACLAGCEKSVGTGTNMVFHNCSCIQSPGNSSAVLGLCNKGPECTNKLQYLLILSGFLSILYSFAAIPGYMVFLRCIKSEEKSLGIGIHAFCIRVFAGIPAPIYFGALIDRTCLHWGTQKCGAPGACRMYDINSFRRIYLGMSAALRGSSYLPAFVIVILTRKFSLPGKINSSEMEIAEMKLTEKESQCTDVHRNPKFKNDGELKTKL", "assay": "TP_TRANSPORTER: inhibition of Taurocholate uptake in OAT-K2-expressing MDCK cells", "assay_type": "functional, cell-based", "conditions": "dog", "values": [{"compound": "C[C@]12C=CC(=O)C=C1CC[C@@H]1[C@@H]2[C@@H](O)C[C@@]2(C)[C@H]1CC[C@]2(O)C(=O)CO", "note": "[PREDNISOLONE]", "Activity": "inhibitor [+]"}, {"compound": "C[C@H](CCC(=O)NCC(=O)O)[C@H]1CC[C@H]2[C@@H]3[C@H](O)C[C@@H]4C[C@H](O)CC[C@]4(C)[C@H]3CC[C@]12C", "note": "[GLYCOCHENODEOXYCHOLATE]", "Activity": "inhibitor [+]"}, {"compound": "O=C1OC(c2ccc(O)c(S(=O)(=O)[O-])c2)(c2ccc(O)c(S(=O)(=O)[O-])c2)c2c(Br)c(Br)c(Br)c(Br)c21.[Na+].[Na+]", "note": "[SULFOBROMOPHTHALEIN SODIUM]", "Activity": "inhibitor [+]"}, {"compound": "C[C@H](CCC(=O)O)[C@H]1CC[C@H]2[C@@H]3[C@@H](O)C[C@@H]4C[C@H](O)CC[C@]4(C)[C@H]3CC[C@]12C", "note": "[URSODIOL]", "Activity": "inhibitor [+]"}, {"compound": "C[C@H](CCC(=O)O)[C@H]1CC[C@H]2[C@@H]3CC[C@@H]4C[C@H](O)CC[C@]4(C)[C@H]3C[C@H](O)[C@]12C", "note": "[DEOXYCHOLIC ACID]", "Activity": "inhibitor [+]"}, {"compound": "CC(=O)S[C@@H]1CC2=CC(=O)CC[C@]2(C)[C@H]2CC[C@@]3(C)[C@@H](CC[C@@]34CCC(=O)O4)[C@H]12", "note": "[SPIRONOLACTONE]", "Activity": "inhibitor [+]"}, {"compound": "COc1ccc2c(c1)c(CC(=O)O)c(C)n2C(=O)c1ccc(Cl)cc1", "note": "[INDOMETHACIN]", "Activity": "inhibitor [+]"}, {"compound": "CCCN(CCC)S(=O)(=O)c1ccc(C(=O)O)cc1", "note": "[PROBENECID]", "Activity": "inhibitor [+]"}, {"compound": "C[C@]12CC[C@H]3[C@@H](CCC4=CC(=O)CC[C@@]43C)[C@@H]1CC[C@@H]2O", "note": "[TESTOSTERONE]", "Activity": "inhibitor [+]"}, {"compound": "C[C@]12CC[C@@H]3c4ccc(O)cc4CC[C@H]3[C@@H]1C[C@@H](O)[C@@H]2O", "note": "[ESTRIOL]", "Activity": "inhibitor [+]"}, {"compound": "C[C@@H]1C[C@H]2[C@@H]3CCC4=CC(=O)C=C[C@]4(C)[C@@]3(F)[C@@H](O)C[C@]2(C)[C@@]1(O)C(=O)CO", "note": "[DEXAMETHASONE]", "Activity": "inhibitor [+]"}, {"compound": "C[C@H](CCC(=O)NCC(=O)O)[C@H]1CC[C@H]2[C@@H]3[C@H](O)C[C@@H]4C[C@H](O)CC[C@]4(C)[C@H]3C[C@H](O)[C@]12C", "note": "[GLYCOCHOLIC ACID]", "Activity": "inhibitor [+]"}, {"compound": "C[C@]12CC[C@@H]3c4ccc(O)cc4CC[C@H]3[C@@H]1CC[C@@H]2O", "note": "[ESTRADIOL]", "Activity": "inhibitor [+]"}, {"compound": "C[C@H](CCC(=O)NCCS(=O)(=O)O)[C@H]1CC[C@H]2[C@@H]3[C@H](O)C[C@@H]4C[C@H](O)CC[C@]4(C)[C@H]3CC[C@]12C", "note": "[TAUROCHENODEOXYCHOLATE]", "Activity": "inhibitor [+]"}, {"compound": "C[C@H](CCC(=O)NCCS(=O)(=O)O)[C@H]1CC[C@H]2[C@@H]3CC[C@@H]4C[C@H](O)CC[C@]4(C)[C@H]3C[C@H](O)[C@]12C", "note": "[TAURODEOXYCHOLIC ACID]", "Activity": "inhibitor [+]"}]}, {"biological_target": "T1, Solute carrier organic anion transporter family member 1A3", "assay": "TP_TRANSPORTER: uptake in OAT-K2-expressing MDCK cells", "assay_type": "functional, cell-based", "conditions": "dog", "values": [{"compound": "CCCCC[C@H](O)/C=C/[C@H]1[C@H](O)CC(=O)[C@@H]1C/C=C\\CCCC(=O)O", "note": "[DINOPROSTONE]", "Activity": "substrate [+]"}]}, {"biological_target": "T1, Solute carrier organic anion transporter family member 1A3", "assay": "TP_TRANSPORTER: uptake in Xenopus laevis oocytes", "assay_type": "functional, cell-based", "conditions": "oocyte", "values": [{"compound": "Nc1nc2ncc(CNc3ccc(C(=O)N[C@@H](CCC(=O)O)C(=O)O)cc3)nc2c(=O)[nH]1", "note": "[FOLIC ACID]", "Activity": "substrate [+]"}, {"compound": "CCCCC[C@H](O)/C=C/[C@H]1[C@H](O)CC(=O)[C@@H]1C/C=C\\CCCC(=O)O", "note": "[DINOPROSTONE]", "Activity": "substrate [+]"}, {"compound": "CN(Cc1cnc2nc(N)nc(N)c2n1)c1ccc(C(=O)N[C@@H](CCC(=O)O)C(=O)O)cc1", "note": "[METHOTREXATE]", "Activity": "substrate [+]"}]}]}
